In one experiment the target is Carbonic anhydrase 12 (Homo sapiens, UniProt O43570). Description: Inhibition of recombinant human CA XII (30 to 291 residues) expressed in escherichia coli BL21 assessed as inhibition constant preincubated for 15 mins by phenol red dye based stopped-flow CO2 hydration assay.
A further experiment concerns the target Carbonic anhydrase 1 (Homo sapiens, UniProt P00915). Description: Inhibition of recombinant human CA1 assessed as inhibition constant preincubated for 15 mins by phenol red dye based stopped-flow CO2 hydration assay.
The next experiment deals with Carbonic anhydrase 2 (Homo sapiens, UniProt P00918). Description: Inhibition of recombinant human […] assessed as inhibition constant preincubated for 15 mins by phenol red dye based stopped-flow CO2 hydration assay.
The next experiment addresses Carbonic anhydrase 9 (Homo sapiens, UniProt Q16790). Description: Inhibition of recombinant human […] assessed as inhibition constant preincubated for 15 mins by phenol red dye based stopped-flow CO2 hydration assay.
For the next experiment, the system named is A549. Description: Cytotoxicity against human A549 cells assessed as inhibition of cell viability for 48 hrs by MTT assay. The experiment is classed as functional, cell-based. The settings on record: A549, 48 h. A general note: Tetrazolium dyes change colour on reduction, which living cells bring about.
A further experiment deals with MCF7. In words: Cytotoxicity against human MCF7 cells assessed as inhibition of cell viability for 48 hrs by MTT assay. The experiment is classed as functional, cell-based. The settings on record: for IC50: MCF7, 48 h.
The next experiment concerns HeLa. In words: Cytotoxicity against human HeLa cells assessed as inhibition of cell viability for 48 hrs by MTT assay. The experiment is classed as functional, cell-based.

Calls of active or inactive are those of the source. The rule behind the calls is not given here.

A word on the Ki: it is a measure of affinity in units of concentration, obtained from inhibition or displacement. In general, IC50 refers to the point on the concentration scale where inhibition reaches its midpoint.

Carbonic anhydrase 12, sequence (O43570 whole entry, the tested form may be a part): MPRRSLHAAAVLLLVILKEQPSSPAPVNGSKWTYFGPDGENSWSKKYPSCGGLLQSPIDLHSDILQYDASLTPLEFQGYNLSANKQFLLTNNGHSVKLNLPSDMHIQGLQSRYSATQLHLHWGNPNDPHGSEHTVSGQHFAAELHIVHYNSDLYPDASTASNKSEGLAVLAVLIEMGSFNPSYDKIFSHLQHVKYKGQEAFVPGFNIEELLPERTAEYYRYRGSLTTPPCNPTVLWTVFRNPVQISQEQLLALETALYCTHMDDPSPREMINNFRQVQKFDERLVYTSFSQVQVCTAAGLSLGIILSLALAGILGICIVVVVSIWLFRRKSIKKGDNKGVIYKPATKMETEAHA
Carbonic anhydrase 1, sequence (P00915 whole entry): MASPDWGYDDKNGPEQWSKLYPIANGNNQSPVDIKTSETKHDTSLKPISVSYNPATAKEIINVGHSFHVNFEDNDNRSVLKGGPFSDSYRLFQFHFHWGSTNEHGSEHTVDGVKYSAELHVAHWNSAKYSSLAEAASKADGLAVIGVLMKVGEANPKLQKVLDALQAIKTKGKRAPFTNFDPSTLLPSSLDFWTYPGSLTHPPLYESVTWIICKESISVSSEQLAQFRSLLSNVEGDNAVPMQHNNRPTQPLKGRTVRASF

Consider `Cc1cc(-c2cccc(S(N)(=O)=O)c2)cnc1-c1ccnc2ccccc12`, for which the Ki on Carbonic anhydrase 12 stood at 450 nM; at Carbonic anhydrase 1 it was 479 nM; at Carbonic anhydrase 2, 88.6 nM; at Carbonic anhydrase 9, 215 nM.

For the molecule `NS(=O)(=O)c1ccc(-c2ccc(-c3cccc4ncccc34)cc2)s1`, the inhibition constant Ki at Carbonic anhydrase 12 was determined as 71.8 nM; at Carbonic anhydrase 1 it was 84.5 nM; at Carbonic anhydrase 2, 11.3 nM; at Carbonic anhydrase 9, 38.4 nM.

Consider `Cc1cc(-c2ccc(S(N)(=O)=O)s2)cnc1-c1cccc2ccccc12`, for which the Ki at Carbonic anhydrase 12 came out at 212 nM; on Carbonic anhydrase 1, 90.5 nM; on Carbonic anhydrase 2 it was 7.3 nM; on Carbonic anhydrase 9, 29.3 nM.

Turning to `Cc1cc(-c2ccc(S(N)(=O)=O)cc2)cnc1-c1ccnc2ccccc12`, the Ki at Carbonic anhydrase 12 turned out to be 247 nM; on Carbonic anhydrase 1, 48.9 nM; on Carbonic anhydrase 2, 4.9 nM; at Carbonic anhydrase 9 it was 167 nM.

Regarding `NS(=O)(=O)c1ccc(-c2ccc(-c3ccnc4ccccc34)cn2)s1`, the inhibition constant Ki at Carbonic anhydrase 12 turned out to be 51 nM; on Carbonic anhydrase 1, 72.5 nM; on Carbonic anhydrase 2 it was 2.1 nM; at Carbonic anhydrase 9, 61.4 nM. Further, the half-maximal inhibitory concentration (IC50) with A549 is greater than 500000 nM. For the same molecule, the result in the experiment on MCF7 and in the experiment with HeLa was inactive.

As to `NS(=O)(=O)c1ccc(-c2ccc(-c3cccc4ncccc34)cc2)cc1`, the inhibitory constant (Ki) worked out at 552 nM on Carbonic anhydrase 12, 85.8 nM at Carbonic anhydrase 1, 33.3 nM at Carbonic anhydrase 2 and 72.1 nM at Carbonic anhydrase 9.

For the molecule `Cc1cc(-c2ccc(S(N)(=O)=O)s2)cnc1-c1cccc2ncccc12`, the inhibition constant (Ki) at Carbonic anhydrase 12 was 86.3 nM; at Carbonic anhydrase 1 it was 59 nM; at Carbonic anhydrase 2 it was 3.2 nM; on Carbonic anhydrase 9, 29.8 nM. Moreover, the 50% inhibitory concentration (IC50) in the experiment with A549 is 68000 nM; in the experiment with MCF7 it was 71000 nM; in the experiment on HeLa, 51000 nM.

Take `NS(=O)(=O)c1ccc(-c2ccc(-c3cccc4ccccc34)cc2)s1`: the Ki stood at 559 nM at Carbonic anhydrase 12, 92.8 nM on Carbonic anhydrase 1, 28.7 nM on Carbonic anhydrase 2 and 483 nM on Carbonic anhydrase 9. For the same molecule, the values for the IC50 in the experiment on A549, with MCF7 and with HeLa were 30000 nM, 69000 nM and 24000 nM, respectively.

Regarding `Cc1cc(-c2ccc(S(N)(=O)=O)s2)ccc1-c1cccc2ncccc12`, the Ki on Carbonic anhydrase 12 was found to be 79.4 nM; on Carbonic anhydrase 1 it was 71.7 nM; at Carbonic anhydrase 2, 5.7 nM; at Carbonic anhydrase 9, 27.2 nM. Also, the IC50 was determined as 22000 nM in the experiment on A549, 32000 nM in the experiment with MCF7 and 31000 nM in the experiment with HeLa.

`Cc1cc(-c2ccc(S(N)(=O)=O)s2)ccc1-c1ccnc2ccccc12`: the inhibition constant (Ki) at Carbonic anhydrase 12 came out at 41.8 nM; on Carbonic anhydrase 1, 35.6 nM; at Carbonic anhydrase 2, 5.5 nM; at Carbonic anhydrase 9, 106 nM.

`Cc1cc(-c2cccc(S(N)(=O)=O)c2)ccc1-c1cccc2ccccc12`: the inhibition constant Ki turned out to be 386 nM on Carbonic anhydrase 12, 670 nM on Carbonic anhydrase 1, 101 nM at Carbonic anhydrase 2 and 86.2 nM at Carbonic anhydrase 9.

Take `NS(=O)(=O)c1ccc(-c2ccc(-c3cccc4ccccc34)cc2)cc1`: the Ki on Carbonic anhydrase 12 worked out at 501 nM; on Carbonic anhydrase 1, 113 nM; at Carbonic anhydrase 2, 58.2 nM; at Carbonic anhydrase 9, 84.3 nM.

As to `Cc1cc(-c2ccc(S(N)(=O)=O)s2)cnc1-c1ccnc2ccccc12`, the Ki was determined as 157 nM on Carbonic anhydrase 12, 50 nM at Carbonic anhydrase 1, 3.7 nM on Carbonic anhydrase 2 and 68.1 nM on Carbonic anhydrase 9. Further, the values for the IC50 with A549, with MCF7 and with HeLa were 43500 nM, 16500 nM and 105000 nM, respectively.

For the molecule `Cc1cc(-c2ccc(S(N)(=O)=O)s2)ccc1-c1cccc2ccccc12`, the Ki was determined as 212 nM on Carbonic anhydrase 12, 67.5 nM at Carbonic anhydrase 1, 34.8 nM at Carbonic anhydrase 2 and 29.3 nM at Carbonic anhydrase 9. For the same molecule, the figures for the IC50 in the experiment with A549, in the experiment on MCF7 and in the experiment with HeLa were 102000 nM, greater than 500000 nM and greater than 500000 nM, respectively.

On to `NS(=O)(=O)c1cccc(-c2ccc(-c3cccc4ccccc34)cc2)c1`, for which the Ki at Carbonic anhydrase 12 stood at 558 nM; on Carbonic anhydrase 1, 698 nM; at Carbonic anhydrase 2, 144 nM; at Carbonic anhydrase 9 it was 331 nM.

As to `Cc1cc(-c2ccc(S(N)(=O)=O)cc2)ccc1-c1cccc2ccccc12`, the Ki came to 808 nM at Carbonic anhydrase 12, 54.8 nM on Carbonic anhydrase 1, 30.5 nM at Carbonic anhydrase 2 and 75.6 nM on Carbonic anhydrase 9.

The values above are taken from ChEMBL document CHEMBL5338740, “Atropo/Tropo Flexibility: A Tool for Design and Synthesis of Self-Adaptable Inhibitors of Carbonic Anhydrases and Their Antiproliferative Effect” (J Med Chem, 2023).
